For experiment [1], the target named is B-Raf kinase (SEQ. ID NO: 2) (Homo sapiens (Human), UniProt P15056). As to the kind of experiment: Biochemical Assay for B-Raf (2). The following applies: Table J, biochemical assay (2); read-out: BRAF (2). As for the experimental part:
Biochemical Assay for B-Raf (2)
Activity of B-Raf kinase (SEQ. ID NO: 2) was determined spectroscopically using a coupled pyruvate kinase/lactate dehydrogenase assay that continuously monitors the ATP hydrolysis-dependent oxidation of NADH (e.g., Schindler et al., Science, 2000, 289, 1938-1942). Assays were conducted in 384-well plates (25 μL final volume) using 2 nM B-Raf (Sigma), 1.5 units pyruvate kinase, 2.1 units lactate dehydrogenase, 1 mM phosphoenol pyruvate, 0.7 mM NADH, 50 nM MEK (SignalChem), and 1 mM ATP in assay buffer (100 mM Tris, pH 7.5, 15 mM MgCl2, 0.5 mM DTT, 0.1% octyl-glucoside, 0.002% (w/v) BSA, and 0.002% Triton X-100). Inhibition of B-Raf was measured by adding serial diluted test compound (final assay concentration of 1% DMSO). A decrease in absorption at 340 nm was monitored hourly for 4 h at 30° C. on a multi-mode microplate reader (BioTek). The reaction rate was calculated using the 2 to 3 h time frame. The reaction rate at each concentration of compound was converted to percent inhibition using controls (i.e., reaction with no test compound and reaction with a known inhibitor) and IC50 values were calculated by fitting a four-parameter sigmoidal curve to the data using Prism (GraphPad software).

The subject of another experiment is WM3928 cells. As to the kind of experiment: WM3928 Cell Proliferation Assay (2). The class given is cell-based. As to the method:
WM3928 Cell Proliferation Assay (2)
WM3928 cells (#WM3928-01-0001) are obtained from Rockland Immunochemicals Inc (Gilbertsville, PA). Briefly, cells were grown in MCDB 153 medium (Sigma, #M7403, St. Louis, MO) supplemented with 20% Leibovitz's L-15 (ThermoFisher #11415-064, Waltham, MA), 2% heat inactivated fetal bovine serum (ThermoFisher, #A3840001, Waltham, MA), 5 μg/mL Insulin (Bovine Pancreas) (Sigma, #10516, St. Louis, MO), 1.68 mM Calcium Chloride (Sigma, #C-34006, St. Louis, MO) and 1% Penicillin/Streptomycin/L-Glutamine (ThermoFisher #10378016, Waltham, MA) at 37° C., 5% CO2, and 95% humidity. Cells are expanded until reaching 70-95% confluency at which point they are sub-cultured or harvested for assay use. Using the Beckman Coulter Echo 650, a serial dilution of test compound is dispensed into a 384-well black clear bottom plate in triplicate. Seven hundred fifty cells are added per well in 50 μL complete growth medium in the 384-well plate. Plates are incubated for 67-72 hours at 37° C., 5% CO2, and 95% humidity. At the end of the incubation, 10 μL of a 440 μM solution of resazurin (Sigma, #199303, St. Louis, MO) in PBS is added to each well of the plate and plates are incubated for an additional 3-6 hours at 37° C., 5% CO2, and 95% humidity. Plates are read on a Synergy2 or equivalent reader (Biotek, Winooski VT) using an excitation of 540 nm and an emission of 600 nm. Data is analyzed using Prism software (GraphPad, San Diego, CA) to calculate IC50 values.

The test system of a further experiment is A375 cells. As to the kind of experiment: A375 Cell Proliferation Assay (2). It counts as cell-based. Conditions: Homo sapiens, A-375. As for the experimental part: A375 Cell Proliferation Assay (2)
A375 cells (catalog (#CRL-1619) are obtained from the American Type Culture Collect (ATTC, Manassas, VA). Briefly, cells were grown in DMEM High Glucose supplemented with 10% characterized fetal bovine serum (Invitrogen, Carlsbad, CA) and 1% Penicillin/Streptomycin/L-Glutamine at 37° C., 5% CO2, and 95% humidity. Cells are expanded until reaching 70-95% confluency at which point they are sub-cultured or harvested for assay use. Using the Beckman Coulter Echo 650, a serial dilution of test compound is dispensed into a 384-well black clear bottom plate in triplicate. Six hundred twenty-five cells are added per well in 50 μL complete growth medium in the 384-well plate. Plates are incubated for 67-72 h at 37° C., 5% CO2, and 95% humidity. At the end of the incubation, 10 μL of a 440 μM solution of resazurin (Sigma, St. Louis, MO) in PBS is added to each well of the plate and plates are incubated for an additional 3-6 h at 37° C., 5% CO2, and 95% humidity. Plates are read on a Synergy2 or equivalent reader (Biotek, Winooski VT) using an excitation of 540 nm and an emission of 600 nm. Data is analyzed using Prism software (GraphPad, San Diego, CA) to calculate IC50 values.

In experiment [2] the target is B-Raf (V600E) (SEQ. ID NO: 4) kinase (Homo sapiens (Human), UniProt P15056, V600E). As to the kind of experiment: Biochemical Assay for B-Raf (V600E) (2). Conditions: Table J, BRAF V600E, biochemical assay (2); read-out: BRAF VE (2). As for the experimental part: Biochemical Assay for B-Raf (V600E) (2)
Activity of B-Raf (V600E) (SEQ. ID NO: 4) kinase was determined spectroscopically using a coupled pyruvate kinase/lactate dehydrogenase assay that continuously monitors the ATP hydrolysis-dependent oxidation of NADH (e.g., Schindler et al., Science, 2000, 289, 1938-1942). Assays were conducted in 384-well plates (25 μL final volume) using 0.5 nM B-Raf (deCode), 1.5 units pyruvate kinase, 2.1 units lactate dehydrogenase, 1 mM phosphoenol pyruvate, 0.7 mM NADH, 100 nM MEK (SignalChem), and 1 mM ATP in assay buffer (100 mM Tris, pH 7.5, 15 mM MgCl2, 0.5 mM DTT, 0.1% octyl-glucoside, 0.002% (w/v) BSA, and 0.002% Triton X-100). Inhibition of B-Raf (V600E) was measured by adding serial diluted test compound (final assay concentration of 1% DMSO). A decrease in absorption at 340 nm was monitored hourly for 4 h at 30° C. on a multi-mode microplate reader (BioTek). The reaction rate was calculated using the 3 to 4 h time frame. The reaction rate at each concentration of compound was converted to percent inhibition using controls (i.e., reaction with no test compound and reaction with a known inhibitor) and IC50 values were calculated by fitting a four-parameter sigmoidal curve to the data using Prism (GraphPad software).

Consider ten molecules from patent publication US12319655B2, “RAF kinase inhibitors and methods of use thereof” (Deciphera Pharmaceuticals, LLC, priority 2021, dated 2025).

Structures are written as SMILES.

Chain of B-Raf kinase (SEQ. ID NO: 2) (P15056 416-766): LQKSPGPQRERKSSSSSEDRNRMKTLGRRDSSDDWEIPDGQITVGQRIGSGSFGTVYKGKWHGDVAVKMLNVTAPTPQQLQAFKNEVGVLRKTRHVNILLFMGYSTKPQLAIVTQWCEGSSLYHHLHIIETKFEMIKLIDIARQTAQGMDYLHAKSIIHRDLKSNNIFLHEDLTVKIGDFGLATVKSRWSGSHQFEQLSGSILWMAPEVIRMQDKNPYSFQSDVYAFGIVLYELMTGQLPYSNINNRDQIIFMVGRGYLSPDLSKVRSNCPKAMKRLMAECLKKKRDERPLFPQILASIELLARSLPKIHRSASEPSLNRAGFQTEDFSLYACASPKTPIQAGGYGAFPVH
Chain of B-Raf (V600E) (SEQ. ID NO: 4) kinase (P15056 416-766 V600E): as the sequence (P15056 416-766) above, with V185E counted along it

In the case of `CNC(=O)c1cc(-c2cc(-c3cc(NC(=O)c4ccnc(C(C)C)c4)cnc3C)ccn2)ccn1` [Example 465], the IC50 in experiment [1] is 0.1 to 0.5 µM; with WM3928 cells it was 0.1 to 0.5 µM; in the experiment with A375 cells, 0.5 to 1 µM; in experiment [2] it was not above 0.1 µM.

Consider `Cc1ccc(NC(=O)c2ccnc(C3CC3)c2)cc1-c1ccnc(-c2ccnc(NC(=O)C3CC3)c2)c1` [Example 458], for which the IC50 in experiment [1] is not above 0.1 µM; with WM3928 cells it was not above 0.1 µM; in the experiment on A375 cells, 0.1 to 0.5 µM; in experiment [2], not above 0.1 µM.

Regarding `CNC(=O)c1cc(-c2cc(-c3cc(NC(=O)c4ccnc(C(C)(C)F)c4)ccc3C)cc(OCCO)n2)ccn1` [Example 449], the IC50 was 0.1 to 0.5 µM in experiment [1], not above 0.1 µM in the experiment on WM3928 cells, not above 0.1 µM in the experiment on A375 cells and not above 0.1 µM in experiment [2].

As to `CNC(=O)c1cc(-c2cc(-c3cc(NC(=O)c4ccnc(C(C)(F)F)c4)cnc3C)ccn2)ccn1` [Example 463], the IC50 in experiment [1] is 0.1 to 0.5 µM; with WM3928 cells it was 0.1 to 0.5 µM; in the experiment on A375 cells, 0.5 to 1 µM; in experiment [2] it was not above 0.1 µM.

As to `CNC(=O)c1cc(-c2cncc(-c3cc(NC(=O)c4ccnc(C(C)C)c4)ccc3C)c2)ccn1` [Example 445], the IC50 in experiment [1] is not above 0.1 µM; with WM3928 cells, not above 0.1 µM; in the experiment on A375 cells it was 0.1 to 0.5 µM; in experiment [2], not above 0.1 µM.

Consider `Cc1cc(-c2cc(NC(=O)c3ccnc(C(C)(C)F)c3)ccc2C)cc(-c2ccnc(C#N)c2)n1` [Example 483], for which the IC50 in experiment [1] is 0.1 to 0.5 µM; in the experiment on WM3928 cells, 0.5 to 1 µM; in the experiment with A375 cells, 1 to 10 µM; in experiment [2], 0.1 to 0.5 µM.

For `CNC(=O)c1cc(-c2cc(-c3cc(NC(=O)c4ccnc(C(C)(C)F)c4)ccc3F)ccn2)ccn1` [Example 479], the IC50 in experiment [1] was 0.1 to 0.5 µM; in the experiment with WM3928 cells it was not above 0.1 µM; with A375 cells, 0.1 to 0.5 µM; in experiment [2], 0.1 to 0.5 µM.

As to `CNC(=O)c1cc(-c2cc(-c3cc(NC(=O)c4ccnc(C(C)(F)F)c4)ccc3C)ccn2)ccn1` [Example 441], the IC50 (in experiment [1]; with WM3928 cells; in the experiment on A375 cells; in experiment [2]) was not above 0.1 µM in each case.

Regarding `CNC(=O)c1cc(-c2cc(-c3cc(NC(=O)c4ccnc(C5(C#N)CC5)c4)cnc3C)ccn2)ccn1` [Example 464], the IC50 in experiment [1] is 0.1 to 0.5 µM; with WM3928 cells it was 0.1 to 0.5 µM; in the experiment on A375 cells, 0.1 to 0.5 µM; in experiment [2], not above 0.1 µM.

With `CNC(=O)c1cc(-c2cc(-c3cc(NC(=O)c4ccnc(C(C)(C)F)c4)ccc3C)cnn2)ccn1` [Example 473], the IC50 in experiment [1] was 0.1 to 0.5 µM; in the experiment on WM3928 cells, not above 0.1 µM; in the experiment on A375 cells it was not above 0.1 µM; in experiment [2] it was not above 0.1 µM.
